Values quoted from earlier work as cited in US11026985B2, “Methods for removing contaminants from plant-derived pharmaceuticals” (priority 2018, dated 2021).

Legend:
[1] = permissible limit in Cannabis, State of Oregon

Row | Compound | Action Level (ppm) [1] [ppm] | other results
1 | Cc1c(COC(=O)[C@@H]2[C@H](/C=C(\Cl)C(F)(F)F)C2(C)C)cccc1-c1ccccc1 (racemic) [Bifenthrin] | 0.2 | 
2 | COP(=O)(NC(C)=O)SC (stereo not shown) [Acephate] | 0.4 | 
3 | CCCCCCCCCCCCC1=C(OC(C)=O)C(=O)c2ccccc2C1=O [Acequinocyl] | 2 | 
4 | C/C(=N\C#N)N(C)Cc1ccc(Cl)nc1 [Acetamiprid] | 0.2 | 
5 | CNC(=O)O/N=C/C(C)(C)SC [Aldicarb] | 0.4 | 
6 | COc1ccc(-c2ccccc2)cc1NNC(=O)OC(C)C [Bifenazate] | 0.2 | 
7 | O=C(Nc1ccccc1-c1ccc(Cl)cc1)c1cccnc1Cl [Boscalid] | 0.4 | 
8 | C=C(C)[C@@H]1CCC(C)=C[C@H]1c1c(O)cc(CCC)cc1O [Cannabidivarin] |  | Water Soluble?: No
9 | CCCCCc1cc(O)c(C/C=C(\C)CCC=C(C)C)c(O)c1 [Cannabigerol] |  | Water Soluble?: No
10 | CNC(=O)Oc1cccc2ccccc12 [Carbaryl] | 0.2 | 
11 | CNC(=O)Oc1cccc2c1OC(C)(C)C2 [Carbofuran] | 0.2 | 
12 | CNC(=O)c1cc(Cl)cc(C)c1NC(=O)c1cc(Br)nn1-c1ncccc1Cl [Chlorantraniliprole] | 0.2 | 
13 | CCOCn1c(-c2ccc(Cl)cc2)c(C#N)c(Br)c1C(F)(F)F [Chlorfenapyr] | 1 | 
14 | CC1(C)C(C=C(Cl)Cl)C1C(=O)OC(C#N)c1ccc(F)c(Oc2ccccc2)c1 (stereo not shown) [Cyfluthrin] | 1 | 
15 | COP(=O)(OC)OC=C(Cl)Cl [DDVP (Dichlorvos)] | 0.1 | 
16 | CCOP(=S)(OCC)Oc1cc(C)nc(C(C)C)n1 [Diazinon] | 0.2 | 
17 | CNC(=O)CSP(=S)(OC)OC [Dimethoate] | 0.2 | 
18 | CCOc1ccc(C(C)(C)COCc2cccc(Oc3ccccc3)c2)cc1 [Etofenprox] | 0.4 | 
19 | CCOc1cc(C(C)(C)C)ccc1C1COC(c2c(F)cccc2F)=N1 (stereo not shown) [Etoxazole] | 0.2 | 
20 | CCOC(=O)NCCOc1ccc(Oc2ccccc2)cc1 [Fenoxycarb] | 0.2 | 
21 | Cc1nn(C)c(Oc2ccccc2)c1/C=N/OCc1ccc(C(=O)OC(C)(C)C)cc1 [Fenpyroximate] | 0.4 | 
22 | N#Cc1nn(-c2c(Cl)cc(C(F)(F)F)cc2Cl)c(N)c1[S+]([O-])C(F)(F)F (stereo not shown) [Fipronil] | 0.4 | 
23 | N#CCNC(=O)c1cnccc1C(F)(F)F [Flonicamid] | 1 | 
24 | N#Cc1c[nH]cc1-c1cccc2c1OC(F)(F)O2 [Fludioxonil] | 0.4 | 
25 | CC1C(c2ccc(Cl)cc2)SC(=O)N1C(=O)NC1CCCCC1 (stereo not shown) [Hexythiazox] | 1 | 
26 | C=CCOC(Cn1ccnc1)c1ccc(Cl)cc1Cl (stereo not shown) [Imazalil] | 0.2 | 

Row | Compound | Action Level (ppm) [1] [ppm] | other results
27 | O=[N+]([O-])NC1=NCCN1Cc1ccc(Cl)nc1 [Imidacloprid] | 0.4 | 
28 | CO/N=C(/C(=O)OC)c1ccccc1COc1ccccc1C [Kresoxim-methyl, Kresoxim- methyl] | 0.4 | 
29 | CCCCC(CC)CN1C(=O)C2C3C=CC(C3)C2C1=O (stereo not shown) [MGK-264] | 0.2 | 
30 | CCOC(=O)CC(SP(=S)(OC)OC)C(=O)OCC (stereo not shown) [Malathion] | 0.2 | 
31 | COCC(=O)N(c1c(C)cccc1C)C(C)C(=O)OC (stereo not shown) [Metalaxyl] | 0.2 | 
32 | CNC(=O)Oc1cc(C)c(SC)c(C)c1 [Methiocarb] | 0.2 | 
33 | CNC(=O)ON=C(C)SC [Methomyl] | 0.4 | 
34 | CCCCC(C#N)(Cn1cncn1)c1ccc(Cl)cc1 (stereo not shown) [Myclobutanil] | 0.2 | 
35 | COP(=O)(OC)OC(Br)C(Cl)(Cl)Br (stereo not shown) [Naled] | 0.5 | 
36 | CNC(=O)O/N=C(\SC)C(=O)N(C)C [Oxamyl] | 1 | 
37 | CC1(C)C(C=C(Cl)Cl)C1C(=O)OCc1cccc(Oc2ccccc2)c1 (stereo not shown) [Permethrins] | 0.2 | 
38 | COP(=S)(OC)SCN1C(=O)c2ccccc2C1=O [Phosmet] | 0.2 | 
39 | CCCCOCCOCCOCc1cc2c(cc1CCC)OCO2 [Piperonyl butoxide] |  | toxicity to humans (humans): non-toxic
40 | C#CCC1=C(C)C(OC(=O)[C@@H]2[C@@H](C=C(C)C)C2(C)C)CC1=O (stereo partly shown) [Prallethrin] | 0.2 | 
41 | CCCC1COC(Cn2cncn2)(c2ccc(Cl)cc2Cl)O1 (stereo not shown) [Propiconazole] | 0.4 | 
42 | CNC(=O)Oc1ccccc1OC(C)C [Propoxur] | 0.2 | 
43 | CC(C)(C)c1ccc(CSc2cnn(C(C)(C)C)c(=O)c2Cl)cc1 [Pyridaben] | 0.2 | 
44 | Cc1cc(C)c(C2=C(OC(=O)CC(C)(C)C)C3(CCCC3)OC2=O)c(C)c1 [Spiromesifen] | 0.2 | 
45 | CCOC(=O)OC1=C(c2cc(C)ccc2C)C(=O)N[C@]12CC[C@@H](OC)CC2 [Spirotetramat] | 0.2 | 
46 | CCCN(CC)CC1COC2(CCC(C(C)(C)C)CC2)O1 (stereo not shown) [Spiroxamine] | 0.4 | 
47 | CC(C)(C)C(O)(CCc1ccc(Cl)cc1)Cn1cncn1 (stereo not shown) [Tebuconazole] | 0.4 | 
48 | N#C/N=C1\SCCN1Cc1ccc(Cl)nc1 [Thiacloprid] | 0.2 | 
49 | CN1COCN(Cc2cnc(Cl)s2)/C1=N\[N+](=O)[O-] [Thiamethoxam] | 0.2 | 
50 | CO/N=C(/C(=O)OC)c1ccccc1CO/N=C(\C)c1cccc(C(F)(F)F)c1 [Trifloxystrobin] | 0.2 | 
51 | Abamectin | 0.5 | 
52 | Spinosad | 0.2 | 
